# Source: patent publication US20110178139A1, “Pyridoxamine for the Treatment of Diabetic Kidney Disease” (priority 2004, published 2011)
# Key:
# [1] = test system: patients with type 1 and type 2 DM and overt nephropathy; assay: Randomized, double-blind, placebo-controlled, multicenter trial (PYR206) of PYR 50 mg b.i.d. for six months; type: in vivo, human
# Method: A randomized, double-blind, placebo-controlled, multicenter trial which examined the safety profile of pyridoxamine dihydrochloride (PYR) in patients with type 1 and type 2 DM and overt nephropathy was conducted. 128 patients (48 type 1, 80 type 2) at 32 sites were randomized to receive either PYR 50 mg twice a day (b.i.d) or placebo for six months, 58 patients in each group completed the study. Groups were well matched at baseline for age, race, gender, blood pressure, hemoglobin AlC (HbAlC), and angiotensin converting enzyme inhibitor (ACEI)/angiotensin receptor blocker (ARB) use.
# Baseline characteristics of the patients included serum creatinine=1.27 mg/dL and urinary albumin excretion=868 mg/12 h in treatment, versus 1.33 mg/dL and 1055 mg/12 h in placebo groups (differences not significant, NS).
# In addition, the urinary levels of TGF beta in the subjects completing the PYR206 study (combined type 1 and type 2 patients) were tested. This growth factor is an important and accepted marker of renal disease, since it initiates or controls a cascade of cellular changes (from diabetes and other diseases) that lead to mesangial expansion and eventually fibrosis in the kidney. […] This is strong evidence of the action of PYR in retarding or halting the nephropathy due to the diabetes.
# [2] = test system: diabetic nephropathy patients; assay: Separate study: six months of escalating doses of pyridoxamine dihydrochloride in addition to standard of care; type: in vivo, human
# Method: In a separate study, diabetic nephropathy patients received six months of treatment of escalating doses of pyridoxamine dihydrochloride (50 mg, 100 mg, and 250 mg), administered orally via capsules twice daily as follows:
# 50 mg bid for 2 weeks, then if tolerated:
# 10 mg bid for 2 weeks, then if tolerated:
# The study drug was administered in addition to standard of care therapy. The patient population consisted of male and female patients between 18 and 70 years of age with diabetic nephropathy associated with type 1 or type 2 diabetes, serum creatinine of […], and macroalbuminuria confirmed with baseline urinary albumin excretion≧300 mg/24 his.
# 84 patients received at least one dose of the study drug (57 pyridoxamine dihydrochloride; 27 placebo.
# Baseline characteristics of the patients included serum creatinine of 1.91 mg/dL and urinary albumin excretion of 957 mg/12 h in treatment, versus 1.95 mg/dL and 1224 mg/12 h in placebo groups.
# [3] = PYR 50 mg b.i.d., six months, no significant difference vs placebo
# [4] = escalating doses 50, 100, 250 mg bid, six months, no significant difference vs placebo
structure (smiles),measurement,setting,value
"Cc1ncc(CO)c(CN)c1O.Cl.Cl [PYR, pyridoxamine dihydrochloride]",serious adverse events,[1]; [3],11%
same,study discontinuation due to AE's,[1]; [3],6%
same,treatment-related adverse events,[1]; [3],26%
same,scored neurotoxicity testing,"[1]; PYR 50 mg b.i.d., six months, vs placebo",No significant differences
same,mean rate of rise in serum creatinine,"[1]; all patients, 50 mg b.i.d., six months, p=0.0065 by ANOVA vs placebo",0.178 mg/dL/yr
same,rise in mean urinary albumin excretion rate,"[1]; all patients, p=0.017, ANOVA vs placebo",122 mg/12 h/yr
same,decrease in urinary TGF beta levels (pg TGF/mg Cr),"[1]; combined type 1 and type 2 patients completing the study, six months, preliminary analysis, placebo increased 43%",about 24%
same,rise in albuminuria,"[1]; patients with baseline HbAlC over 7.275%, p=0.0282, ANOVA",reversed
same,rate of rise in serum creatinine,"[1]; patients with baseline serum creatinine ≧1.3 mg/dL, p<0.0001 vs placebo",0.17 mg/dL/yr
same,rate of rise in serum creatinine,"[1]; type 2 patients taking ACE-I or ARB with baseline serum creatinine ≧1.3 mg/dL (predefined subgroup), p<0.0057 vs placebo",0.138 mg/dL/yr
same,incidence of sensory system neurologic adverse events,[1]; vs placebo (Table 5),significantly reduced
same,serious adverse events,"[2]; escalating doses 50, 100, 250 mg bid, six months, higher rate than placebo (3.7%)",21.1%
same,study discontinuation due to AE's,[2]; [4],8.8%
same,treatment-related adverse events,[2]; [4],35.1%
same,rate of rise in serum creatinine,"[2]; type 2 patients taking ACE-I or ARB with baseline serum creatinine ≧1.3 mg/dL (predefined subgroup), p<0.0001 vs placebo",0.144 mg/dL/yr
